What was measured:
[1] = biological target: 5-hydroxytryptamine receptor 2A (Homo sapiens, UniProt P28223); assay: Displacement of [3H]ketanserin from CHO cells expressing human 5-hydroxytryptamine 2A receptor.; assay type: cell-based
[2] = biological target: D(2) dopamine receptor (Homo sapiens, UniProt P14416); assay: biochemical
Description: Displacement of [3H]spiperone from CHO cells expressing human Dopamine receptor D2.

[3] = biological target: T1, 5-hydroxytryptamine receptor 2C (Homo sapiens, UniProt P28335); assay: Displacement of [H]-mesulergine from CHO cells expressing human 5-hydroxytryptamine 2C receptor.; assay type: cell-based
T1 sequence (P28335 whole entry): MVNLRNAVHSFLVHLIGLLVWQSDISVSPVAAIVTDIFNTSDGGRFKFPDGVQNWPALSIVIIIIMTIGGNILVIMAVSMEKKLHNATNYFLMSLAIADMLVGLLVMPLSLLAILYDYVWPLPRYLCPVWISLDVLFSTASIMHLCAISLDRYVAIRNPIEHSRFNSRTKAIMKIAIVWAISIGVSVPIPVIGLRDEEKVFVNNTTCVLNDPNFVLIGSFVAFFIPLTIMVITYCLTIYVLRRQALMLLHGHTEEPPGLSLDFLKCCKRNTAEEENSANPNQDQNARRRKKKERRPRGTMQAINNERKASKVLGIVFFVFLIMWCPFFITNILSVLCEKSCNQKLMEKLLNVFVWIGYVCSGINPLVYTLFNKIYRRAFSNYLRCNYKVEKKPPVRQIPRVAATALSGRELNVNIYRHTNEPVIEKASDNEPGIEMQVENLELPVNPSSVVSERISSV

Compound	Ki [1]	Ki [2]	Ki [3]
CCN(CC)CCc1c(-c2ccccc2)[nH]c2ccccc12	2.8 nM	> 1000 nM	160 nM
c1ccc(-c2[nH]c3ccccc3c2CCN2CCC2)cc1	44 nM	> 1000 nM	> 1000 nM
C[C@@H]1CCCCN1CCc1c(-c2ccccc2)[nH]c2ccccc12	0.18 nM	21 nM	36 nM
c1ccc(-c2[nH]c3ccccc3c2CCN2CCCC2)cc1	9 nM	> 1000 nM	260 nM
C[C@H]1CCCCN1CCc1c(-c2ccccc2)[nH]c2ccccc12	4 nM	290 nM	230 nM
CCN(C)CCc1c(-c2cccc([N+](=O)[O-])c2)[nH]c2ccccc12	0.14 nM	39 nM	36 nM
c1ccc(-c2[nH]c3ccccc3c2CCN2CCCCC2)cc1	2.6 nM	896 nM	268 nM
CN(C)CCc1c(-c2ccccc2)[nH]c2ccccc12	4.4 nM	> 1000 nM	180 nM
CCN(C)CCc1c(-c2ccco2)[nH]c2ccccc12	> 1000 nM	> 1000 nM	> 1000 nM
